Columns and labels:
Assay type in all cases: in vitro ADME
UGT1A9 = target: T1, UGT1A9 (Homo sapiens, UniProt O60656); test: Recombinant UGT reaction screening and enzyme kinetics, UGT1A9; settings: recombinant UGT1A9 screening
T1 construct: purchased BD Biosciences (Woburn, MA, USA)
T1 sequence (O60656 26-530): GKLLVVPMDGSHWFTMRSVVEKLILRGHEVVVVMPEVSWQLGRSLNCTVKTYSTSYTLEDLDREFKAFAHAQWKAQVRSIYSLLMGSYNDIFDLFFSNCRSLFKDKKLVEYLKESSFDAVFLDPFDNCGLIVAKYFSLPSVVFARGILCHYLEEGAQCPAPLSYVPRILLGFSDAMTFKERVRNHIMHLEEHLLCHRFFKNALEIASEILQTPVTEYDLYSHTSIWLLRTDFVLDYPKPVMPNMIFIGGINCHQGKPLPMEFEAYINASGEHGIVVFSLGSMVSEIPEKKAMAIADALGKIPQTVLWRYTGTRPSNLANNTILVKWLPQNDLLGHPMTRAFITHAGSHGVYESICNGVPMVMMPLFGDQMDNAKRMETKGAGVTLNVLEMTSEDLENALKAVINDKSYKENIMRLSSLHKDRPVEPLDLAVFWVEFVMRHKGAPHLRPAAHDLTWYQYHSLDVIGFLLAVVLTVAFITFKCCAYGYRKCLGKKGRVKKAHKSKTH
Description: (§1) UGT reaction screening of tectorigenin and irigenin was conducted using nine commercially available human UGTs (UGT1A1/1A3/1A4/1A6/1A9/2B4/2B7/2B15/2B17). Furthermore, we studied the enzymatic kinetic characteristics of tectorigenin and irigenin using UGT1A1 and UGT1A9. Six concentrations of tectorigenin and irigenin (1, 3, 10, 30, 100, and 300 μM) were incubated in triplicate in order to obtain the enzyme kinetic characteristics of tectorigenin and irigenin glucuronide.
For both HLMs and UGTs, metabolic kinetic analysis was performed by fitting the data to the Michaelis-Menten model. The Km and Vmax of enzymes were calculated as follows:(3) V=Vmax×[S]/Km+[S], where [S] is the substrate concentration. All results were shown as the mean ± standard error (SE). Differences among different groups were compared using one-way analysis of variance. A p-value < 0.05 was considered statistically significant.

UGT2B7 = target: T2, UGT2B7 (Homo sapiens, UniProt P16662); test: Recombinant UGT reaction screening, UGT2B7
T2 construct: purchased BD Biosciences (Woburn, MA, USA)
T2 sequence (P16662 24-529): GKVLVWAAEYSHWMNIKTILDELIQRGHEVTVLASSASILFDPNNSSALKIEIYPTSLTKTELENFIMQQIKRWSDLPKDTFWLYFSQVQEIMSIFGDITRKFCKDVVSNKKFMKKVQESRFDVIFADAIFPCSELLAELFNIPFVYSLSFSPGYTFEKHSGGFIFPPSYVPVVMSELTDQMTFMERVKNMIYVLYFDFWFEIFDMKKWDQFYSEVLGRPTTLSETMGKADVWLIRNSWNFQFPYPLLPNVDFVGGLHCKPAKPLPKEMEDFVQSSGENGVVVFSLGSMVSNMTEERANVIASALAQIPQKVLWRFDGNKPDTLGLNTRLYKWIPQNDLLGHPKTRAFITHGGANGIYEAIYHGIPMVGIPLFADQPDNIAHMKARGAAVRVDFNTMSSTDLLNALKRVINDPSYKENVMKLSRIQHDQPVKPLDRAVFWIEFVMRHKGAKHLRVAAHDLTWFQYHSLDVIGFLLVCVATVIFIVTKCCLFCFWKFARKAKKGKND
Description: as §1

UGT1A4 = target: T3, UGT1A4 (Homo sapiens, UniProt P22310); test: Recombinant UGT reaction screening, UGT1A4
T3 construct: purchased BD Biosciences (Woburn, MA, USA)
T3 sequence (P22310 29-534): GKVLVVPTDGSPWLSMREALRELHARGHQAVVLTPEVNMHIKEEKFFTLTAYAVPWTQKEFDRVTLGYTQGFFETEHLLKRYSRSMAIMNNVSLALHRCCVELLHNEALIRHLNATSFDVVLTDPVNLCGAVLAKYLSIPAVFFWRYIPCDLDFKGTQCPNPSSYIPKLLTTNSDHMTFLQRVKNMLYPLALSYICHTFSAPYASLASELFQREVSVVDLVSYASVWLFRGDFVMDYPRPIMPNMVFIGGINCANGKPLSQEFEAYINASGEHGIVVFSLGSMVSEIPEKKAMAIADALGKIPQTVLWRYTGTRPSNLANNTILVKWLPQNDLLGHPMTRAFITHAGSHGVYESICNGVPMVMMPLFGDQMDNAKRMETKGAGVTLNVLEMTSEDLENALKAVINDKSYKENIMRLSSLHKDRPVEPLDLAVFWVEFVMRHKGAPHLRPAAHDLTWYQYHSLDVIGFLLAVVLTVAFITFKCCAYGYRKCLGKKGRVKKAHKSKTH
Description: as §1

UGT2B15 = target: T4, UGT2B15 (Homo sapiens, UniProt P54855); test: Recombinant UGT reaction screening, UGT2B15
T4 construct: purchased BD Biosciences (Woburn, MA, USA)
T4 sequence (P54855 24-530): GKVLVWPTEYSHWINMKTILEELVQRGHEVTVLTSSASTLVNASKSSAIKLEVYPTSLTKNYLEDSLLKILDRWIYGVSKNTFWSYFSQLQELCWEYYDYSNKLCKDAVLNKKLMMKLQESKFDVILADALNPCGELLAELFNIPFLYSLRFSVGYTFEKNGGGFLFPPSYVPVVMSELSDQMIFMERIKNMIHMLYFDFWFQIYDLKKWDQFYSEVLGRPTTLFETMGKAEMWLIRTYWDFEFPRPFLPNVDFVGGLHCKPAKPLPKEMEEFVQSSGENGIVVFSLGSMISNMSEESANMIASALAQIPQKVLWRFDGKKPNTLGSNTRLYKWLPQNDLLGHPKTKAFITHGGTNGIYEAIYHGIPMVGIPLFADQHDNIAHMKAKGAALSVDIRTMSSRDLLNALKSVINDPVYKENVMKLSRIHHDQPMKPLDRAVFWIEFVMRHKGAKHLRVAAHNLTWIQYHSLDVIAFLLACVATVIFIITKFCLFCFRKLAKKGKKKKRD
Description: as §1

UGT2B4 = target: T5, UGT2B4 (Homo sapiens, UniProt P06133); test: Recombinant UGT reaction screening, UGT2B4
T5 construct: purchased BD Biosciences (Woburn, MA, USA)
T5 sequence (P06133 24-528): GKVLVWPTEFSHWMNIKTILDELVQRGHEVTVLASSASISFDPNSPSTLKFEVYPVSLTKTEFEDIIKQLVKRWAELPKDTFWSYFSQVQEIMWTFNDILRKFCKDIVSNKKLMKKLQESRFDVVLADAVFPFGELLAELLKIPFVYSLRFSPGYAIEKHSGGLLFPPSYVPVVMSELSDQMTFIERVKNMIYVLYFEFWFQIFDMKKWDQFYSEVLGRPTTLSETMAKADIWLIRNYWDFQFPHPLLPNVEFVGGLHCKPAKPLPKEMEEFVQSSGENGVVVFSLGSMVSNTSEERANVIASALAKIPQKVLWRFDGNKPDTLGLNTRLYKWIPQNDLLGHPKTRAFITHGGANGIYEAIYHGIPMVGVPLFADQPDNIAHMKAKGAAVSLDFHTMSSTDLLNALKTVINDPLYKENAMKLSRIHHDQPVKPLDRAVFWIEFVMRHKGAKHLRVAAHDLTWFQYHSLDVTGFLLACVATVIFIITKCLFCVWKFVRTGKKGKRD
Description: as §1

Activity in glucuronidation of tectorigenin (UGT1A9): highest activity
Activity in glucuronidation of tectorigenin (UGT2B7): some activity
Activity in glucuronidation of tectorigenin (UGT1A4): some activity
Activity in glucuronidation of tectorigenin (UGT2B15): none
Activity in glucuronidation of tectorigenin (UGT2B4): none
Structure (SMILES): COc1c(O)cc2occ(-c3ccc(O)cc3)c(=O)c2c1O [Tectorigenin, 5,7,4′-trihydroxyl-6-methoxyl isoflavone]

Source: paper PMC9268515, “UGT1A1 and UGT1A9 Are Responsible for Phase II Metabolism of Tectorigenin and Irigenin In Vitro” (Molecules, 2022)
